Test results as given in patent US11892401B2, “Boronic acid appended naphthyl-pyridinium fluorescent saccharide sensors for early detection of gastrointestinal diseases” (The Board of Trustees of the Leland Stanford Junior …, priority 2018, dated 2024).
Like-named read-outs stand apart in the source and are kept apart here.

Tests used:
[1] = Fluorescence emission of receptor compounds with increasing lactulose; conditions: phosphate buffer pH 7.4; for emission maxima: receptor 500 μM; for fluorescence intensity change on initial introduction of lactulose: lactulose 0.5 mM
Description: Fluorescence Measurements of exemplary boronic acid receptor compounds: Stock solutions of each boronic acid receptor compound (1-4) were initially prepared in DMS (1 mg/mL) and then diluted to desired initial 1 mM concentration before adding to the wells. Each lactulose concentration points were prepared in 0.1 M sodium phosphate buffer as 2-fold of the desired final concentration in each well. Each well received 20 μL of each receptor compound and sugar concentration (each data point recorded in triplicates) and the fluorescence measurements were conducted in a 96-well plate (Corning #3694) using a Tecan infinite M1000 instrument a plate reader (gain 100, flashes 30, z-position 1.8 cm) Plates were shaken for 30 seconds (2 mm orbital amplitude) prior to reading.
With reference to FIG. 4, panels A to D, the effect of lactulose on the fluorescent properties of each receptor compound (1-4) was examined in phosphate buffer pH 7.4. Receptor compounds (1) and (2) observed similar emission profiles with emission maxima at 504 and 490 nm, meanwhile the emission maxima for (3) and (4) was 50 nm less which peaked at 440 nm. […] These types of fluorescent changes have been previously observed by Norrild where a pyridinium moiety is directly conjugated to an anthracene core (Eggert, H.; Frederiksen, J.; Morin, C.; Norrild, J. C., Journal of Organic Chemistry 1999, 64 (11), 3846-3852). Without being bound to any particular theory, it was hypothesized that the pyridinium unit in the subject receptor compounds may act as an electron sink for the singlet electron diminishing the fluorescence intensity. Upon boronic acid-sugar recognition and subsequently conversion of the hybridization of the boron atom from sp^2 to anionic sp^3 generating a zwitterion induces an internal charge transfer (ICT)-like mechanism increasing the fluorescence intensity.

[2] = Absorption measurements with increasing lactulose; format: physicochemical; conditions: 0.1 M sodium phosphate buffer pH 7.4; 100 μM (1, 2), 50 μM (3, 4)
Description: Absorption measurements of exemplary boronic acid receptor compounds: All absorption measurements were carried out using an Agilent Technologies Cary 60 Vis instrument in a quartz cuvette (1 cm pathlength). Stock solutions (1 mg/mL) of each compound was initially prepared in DMSO and then diluted to the desired concentration in 0.1 M sodium phosphate buffer pH 7.4 which gave minimal DMSO amount of at least 15%. Concentrations for each boronic acid receptor in cuvette are as follows; (1)=100 μM, (2)=100 μM, (3)=50 μM, and (4)=50 µM. Measurements were done in situ by taking the absorbance of each receptor compound in phosphate buffer pH 7.4, then aliquots of buffered 1 M lactulose (0.5-7 μL) was added, shaken for 30 seconds, and the new absorbance was recorded. With reference to FIG. 3, panels A to D, change of absorbance for each receptor compound was monitored as a function of increasing lactulose. […] Each compound provided absorbance maxima between 300-350 nm and with isosbestic points between 330-350 nm for all four receptors. Additionally, the compounds provided molar extinction coefficients of 1.17×10^4 (100 μM), 1.10×10^4 (100 μM), 2.77×10^4 (50 μM), and 5.01×10^4 (50 μM) M^−1 cm^−1 for 1-4 respectively. Without being bound to any particular theory, these absorption changes upon sugar binding at physiological pH for compounds 1-4 is indicative of a possible charge transfer process.

[3] = pH profile / pKa by fluorescence spectroscopy; format: physicochemical; conditions: receptor 500 μM (2) or 250 μM (3, 4), fluorescence titration pH 3-10
Description: Titration curves with pH were determined using the following buffer solutions, pH 3-4 acetate buffer; pH 5-8.5 phosphate buffer; and pH 9-10 carbonate buffer. Fluorescence intensity was monitored in the absence or presence of 30 mM lactulose for exemplary receptor compounds, e.g., 2, 500 μM; 3, 250 μM; and (4, 205 µM in the indicated buffer conditions. Stock solutions of each boronic acid receptor compound (2, 3, and 4) were initially prepared in DMS (1 mg/mL) and then diluted in appropriate buffer conditions to obtain the desired initial 2-fold concentration. Fluorescence measurements were conducted in a 96-well plate (Corning #3694) and to each well 30 μL of each receptor compound and buffer media with or without lactulose were added in triplicate. Blank wells received 60 μL of buffer only. Measurements were performed using a Tecan Infinite M1000 instrument, a plate reader (gain 100, flashes 30, z-position 1.8 cm) Plates were shaken for 30 seconds (2 mm orbital amplitude) prior to reading. After blank subtraction, fluorescence intensity relative to initial total fluorescence (at pH 3).
Each pH-profile was fitted with equation S1, where y=normalized intensity, ymax=maximum normalized intensity, ymin=minimum normalized intensity, x=pH value, k=acid dissociation constant and pka values were obtained from this constant (pka=−log k).
Titration curves fitted to equation S1.

[4] = Stern-Volmer quenching of HPTS anionic reporter dye; format: binding; conditions: 4 μM HPTS, 0.1 M sodium phosphate buffer pH 7.4, sphere of action quenching model
Description: (§1) Stern-Volmer quenching of HPTS and TSPP anionic reporter dyes: Stock solutions of exemplary boronic acid compounds (1, 3, and 4) were initially prepared in DMS (1 mg/mL) and then diluted in 0.1 M sodium phosphate buffer pH 7.4 to obtain the desired initial 2-fold concentration. Fluorescence measurements were conducted in a 96-well plate (Corning #3694) and to each well were added 20 μL of each exemplary compound and 8 μM of HPTS or TSPP in triplicate. Initial fluorescence wells contained 20 μL of each reporter dye and 20 μL of buffer. Blank wells received 40 μL of buffer only. Measurements were performed using a Tecan infinite M1000 instrument a plate reader (gain 100, flashes 30, z-position 1.8 cm) Plates were shaken for 30 seconds (2 mm orbital amplitude) prior to reading. After blank subtraction, fluorescence intensity relative to initial total fluorescence of HPTS or TSPP (Fo/F) for each sample was calculated.
(§2) Given the cationic character of the subject receptor compounds, their ability to form a non-fluorescent ground state complex with anionic reporter dyes, such as HPTS and TSPP was investigated. The fluorescence quenching of each dye can be quantitatively monitored by Stern-Volmer analysis (Albrecht, C., Anal. Bioanal. Chem. 2008, 390 (5), 1223-1224). Two types of quenching can exist, static quenching, due to complex formation, and dynamic quenching, due to collisional encounters between the dye and quencher. Based on previous work with bis-boronic acid appended viologens (BBV) and their ability to quench HPTS (Cordes, D. B.; Gamsey, S.; Sharrett, Z.; Miller, A.; Thoniyot, P.; Wessling, R. A.; Singaram, B., Langmuir 2005, 21 (14), 6540-6547), a similar quenching mechanism was envisaged for each anionic reporter dye, through static quenching. The effects of adjusting the quencher to dye ratio for HPTS and TSPP with each of compounds 1, 3, and 4 while monitoring the decrease of fluorescence for each dye are shown in FIG. 5, panel A (HPTS) and FIG. 5, panel B (TSPP).
(§3) With each of compounds 1, 3 and 4 only having two cationic groups, it was anticipated anticipated that higher (>400 μM) amounts of each quencher would be required to achieve at least 80% of quenched fluorescence. […] Using the fluorescence data, the quenching efficiency can be determined using the available Stern-Volmer fitting models. The best fit to the Stern-Volmer plots for the exemplary compounds was obtained using the sphere of action quenching model (Eq. 2) (Frank, J. M.; Vavilov, S. I., Z. Phys. 1931, 69, 100-10).
(§4) [formula] Where V is the dynamic quenching constant, Ks is the static quenching constant, [Q] is the concentration of the quencher, and […] is derived from the Poisson distribution. There was higher contribution from the static quenching given the higher static quenching constants compared to the dynamic constants (Table 1).

[5] = Stern-Volmer quenching of TSPP anionic reporter dye; format: binding; conditions: 4 μM TSPP, 0.1 M sodium phosphate buffer pH 7.4, sphere of action quenching model
Description: as §1, §2, §3, §4

[6] = Fluorescence recovery of HPTS-receptor probes with 20 sugars; conditions: 4 μM HPTS, optimal Q:D ratio, pH 7.4, 20 sugars
Description: Fluorescence recovery of each anionic reporter dyes: Fluorescence recovery measurements for sugar binding studies were conducted by preparing 96-well plates with the addition of 20 μL of the boronic acid receptor-fluorophore (HPTS or TSPP) probe solution as 2-fold concentrate (for example, 160 μM for (1) & 8 μM HPTS or 800 μM for (1) & 8 μM for TSPP) in 0.1 M sodium phosphate buffer pH 7.4. At the time of running the assay, each well received 20 μL of sample in triplicate. Blank wells were given 40 μL buffer with neither HPTS nor boronic acid receptor compound. Baseline fluorescence wells contained 20 μL of buffer and 20 μL of probe solution. Fluorescence recovery of HPTS was measured on the plate reader. After blank subtraction, fluorescence intensity relative to initial quenched HPTS (F/Fo) for each sample was calculated. Under these conditions, Fo is a non-zero value after background subtraction with about 20% of maximum fluorescence intensity. […]
Each exemplary boronic acid appended naphthyl-pyridinium quencher-dye combination provided unique fluorescent recovery characteristics across all 20 sugars and sugar derivatives analyzed. […]

[7] = 30 mM lactulose, read-out: pka-with 30 mM lactulose
[8] = aqueous buffer solutions in a 96-well plate, no lactulose, read-out: pKa-absence of lactulose

## OB(O)c1ccccc1C[n+]1ccc(-c2ccc3ccccc3c2)cc1.[Br-] [Compound 2, 1-(2-boronobenzyl)-4-(naphthalen-2-yl) pyridinium bromide]
[1]
  emission maxima: 490 nm
[2]
  molar extinction coefficient: 11000 M⁻¹ cm⁻¹
[3]; [7]
  pKa: 5.5 ± 0.06
[3]; [8]
  pKa: 7.7 ± 0.08

## OB(O)c1ccccc1C[n+]1ccc(-c2ccc3cc(-c4cc[n+](Cc5ccccc5B(O)O)cc4)ccc3c2)cc1 [Compound 3]
[4]
  HPTS Ks (static quenching constant): 9.29 ± 0.4 × 10^4 M^−1
  HPTS V (dynamic quenching constant): 109 ± 18 M⁻¹
[1]
  fluorescence intensity change on initial introduction of lactulose: drastic intensity change
  emission maxima: 440 nm
[2]
  molar extinction coefficient: 27700 M⁻¹ cm⁻¹
[5]
  TSPP Ks (static quenching constant): 5.01 ± 0.7 × 10^4 M^−1
  TSPP V (dynamic quenching constant): 68 ± 13 M⁻¹
[3]; [7]
  pKa: 5.8 ± 0.1
[3]; [8]
  pKa: 7.8 ± 0.03

## OB(O)c1ccccc1C[n+]1ccc(-c2ccc3ccc(-c4cc[n+](Cc5ccccc5B(O)O)cc4)cc3c2)cc1 [Compound 4]
[4]
  HPTS Ks (static quenching constant): 1.00 ± 0.9 × 10^5 M^−1
  HPTS V (dynamic quenching constant): 100 ± 14 M⁻¹
[1]
  fluorescence intensity change on initial introduction of lactulose: drastic intensity change
  emission maxima: 440 nm
[2]
  molar extinction coefficient: 50100 M⁻¹ cm⁻¹
[5]
  TSPP Ks (static quenching constant): 1.45 ± 0.1 × 10^4 M^−1
  TSPP V (dynamic quenching constant): 80 ± 10 M⁻¹
[3]; [7]
  pKa: 5.7 ± 0.05
[3]; [8]
  pKa: 8.2 ± 0.02

## OB(O)c1cc(C[n+]2ccc(-c3ccc4ccccc4c3)cc2)cc(C[n+]2ccc(-c3ccc4ccccc4c3)cc2)c1 [Compound 1]
[4]
  HPTS Ks (static quenching constant): 1.01 ± 0.5 × 10^5 M^−1
  HPTS V (dynamic quenching constant): 63 ± 15 M⁻¹
[1]
  emission maxima: 504 nm
[2]
  molar extinction coefficient: 11700 M⁻¹ cm⁻¹
[5]
  TSPP Ks (static quenching constant): 5.24 ± 0.3 × 10^4 M^−1
  TSPP V (dynamic quenching constant): 112 ± 46 M⁻¹
[6]
  change in fluorescence recovery, HPTS combination: ≥ 1.5 fold
